≈ marks a conversion by molar mass, not a printed value. Read-outs that look alike come from different tables or passages of the source.
Experiments:
Format in all cases: cell-based
[1] = test system: clinically isolated Staphylococcus aureus; assay: In vitro antibacterial activity against clinical isolates, Experiment 2; conditions: for MIC50: 50% of strains, read-out: MIC50
Procedure: (§1) The above solutions were then diluted with sterilized distilled water to prepare a standard solution with a concentration of the test compound: 1000 μg/ml each.
(§2) For the preculture of each microorganism, there was used as the medium a sensitivity test broth (manufactured by Nissui Seiyaku K. K., Japan), and for the measurement of MIC, there was used a sensitivity test agar medium (manufactured by Nissui Seiyaku K. K.).
(§3) The clinically isolates used above were isolated from Nov. 1988 to Jun. 1989 and were obtained from Research Section, Tokyo Clinical Research Center.

[2] = test system: clinically isolated Enterococcus faecium; assay: as above
Procedure: as §1, §2, §3

[3] = test system: clinically isolated Enterococcus faecalis; assay: as above
Procedure: as §1, §2, §3

[4] = test system: clinically isolated Staphylococcus epidermidis; assay: as above; conditions: Staphylococcus epidermidis; for MIC90: 90% of strains, read-out: MIC90
Procedure: as §1, §2, §3

[5] = test system: Staphylococcus epidermidis IAM 1296; assay: MIC, Experiment 1; conditions: IAM1296, S. epidermidis IAM 1296, Gram +, read-out: Min. inhib. concentr. (MIC)
Procedure: The compounds of the present invention ([…] and Q) were each dissolved in dimethylsulfoxide to prepare a solution of 5000 μg/ml in concentration. The compounds of the present invention (I, J and K) and the known compound (Y) were each dissolved in sterilized distilled water to prepare a solution of 5000 μg/ml in concentration. […] The test was carried out by a method as appointed by Japan Society of Chemotherapy [cf. Chemotherapy, 29, 76-79 (1981), TOKYO]. As to Streptococcus pneumoniae and Streptococcus pyogenes, Brain heart infusion broth (manufactured by DIFCO) was used as the medium for the preculture thereof, and a heart infusion agar medium containing 5% defibrinated horse blood (manufactured by Nissui Seiyaku K. K., Japan) was used as the medium for the measurement of minimum inhibitory concentration (MIC). As to other microorganisms, a sensitivity test broth (manufactured by Nissui Seiyaku K. K.) was used as the medium for the preculture thereof, and a sensitivity test agar medium (manufactured by Nissui Seiyaku K. K.) was used as the medium for the measurement of MIC.

[6] = test system: Streptococcus pyogenes Cook; assay: MIC, Experiment 1; conditions: S. pyogenes Cook, Gram +, agar with 5% defibrinated horse blood, read-out: Min. inhib. concentr. (MIC)
Procedure: (§4) The compounds of the present invention (B, E, G, H, M, N, O, P and Q) were each dissolved in dimethylsulfoxide to prepare a solution of 5000 μg/ml in concentration. The compounds of the present invention (I, J and K) and the known compound (Y) were each dissolved in sterilized distilled water to prepare a solution of 5000 μg/ml in concentration. Each solution was diluted with sterilized distilled water to prepare a standard solution with a concentration of each test compound: 1000 μg/ml. The test was carried out by a method as appointed by Japan Society of Chemotherapy [cf. Chemotherapy, 29, 76-79 (1981), TOKYO].
(§5) As to Streptococcus pneumoniae and Streptococcus pyogenes, Brain heart infusion broth (manufactured by DIFCO) was used as the medium for the preculture thereof, and a heart infusion agar medium containing 5% defibrinated horse blood (manufactured by Nissui Seiyaku K. K., Japan) was used as the medium for the measurement of minimum inhibitory concentration (MIC). As to other microorganisms, a sensitivity test broth (manufactured by Nissui Seiyaku K. K.) was used as the medium for the preculture thereof, and a sensitivity test agar medium (manufactured by Nissui Seiyaku K. K.) was used as the medium for the measurement of MIC.

[7] = test system: Staphylococcus aureus Terajima (IID 670); assay: MIC, Experiment 1; conditions: IID670, S. aureus Terajima (IID 670), Gram +, read-out: Min. inhib. concentr. (MIC)
Procedure: as §4, §5

[8] = test system: Bacillus subtilis ATCC 6633; assay: MIC, Experiment 1; conditions: ATCC6633, B. subtilis ATCC 6633, Gram +, read-out: Min. inhib. concentr. (MIC)
Procedure: as §4, §5

[9] = test system: Staphylococcus aureus IID 803; assay: MIC, Experiment 1; conditions: IID803, S. aureus IID 803, Gram +, read-out: Min. inhib. concentr. (MIC)
Procedure: as §4, §5

[10] = test system: Staphylococcus aureus Cowan I (IID 975); assay: MIC, Experiment 1; conditions: IID975, S. aureus Cowan I (IID 975), Gram +, read-out: Min. inhib. concentr. (MIC)
Procedure: as §4, §5

[11] = test system: Escherichia coli NIHJ JC-2; assay: MIC, Experiment 1; conditions: NIHJJC2, E. coli NIHJ JC-2, Gram -, read-out: Min. inhib. concentr. (MIC)
Procedure: as §4, §5

[12] = test system: Proteus mirabilis IFO 3849; assay: MIC, Experiment 1; conditions: IFO3849, P. mirabilis IFO 3849, Gram -, read-out: Min. inhib. concentr. (MIC)
Procedure: as §4, §5

[13] = test system: Streptococcus pyogenes Su; assay: MIC, Experiment 1; conditions: S. pyogenes Su, Gram +, agar with 5% defibrinated horse blood, read-out: Min. inhib. concentr. (MIC)
Procedure: as §4, §5

[14] = test system: Staphylococcus aureus MS-353; assay: MIC, Experiment 1; conditions: MS353, S. aureus MS-353, Gram +, read-out: Min. inhib. concentr. (MIC)
Procedure: as §4, §5

Enterobacter cloacae 963 = assay: MIC, Experiment 1; conditions: E. cloacae 963, Gram -, read-out: Min. inhib. concentr. (MIC)
Procedure: as §4, §5

[15] = test system: Streptococcus pneumoniae IID 552; assay: MIC, Experiment 1; conditions: IID552, S. pneumoniae IID 552, Gram +, agar with 5% defibrinated horse blood, read-out: Min. inhib. concentr. (MIC)
Procedure: as §4, §5

Bacillus cereus IAM 1029 = assay: MIC, Experiment 1; conditions: IAM1029, B. cereus IAM 1029, Gram +, read-out: Min. inhib. concentr. (MIC)
Procedure: as §4, §5

[16] = test system: Streptococcus pyogenes Sv; assay: MIC, Experiment 1; conditions: S. pyogenes Sv, Gram +, agar with 5% defibrinated horse blood, read-out: Min. inhib. concentr. (MIC)
Procedure: as §4, §5

[17] = test system: Pseudomonas aeruginosa NCTC 10490; assay: MIC, Experiment 1; conditions: NCTC10490, P. aeruginosa NCTC 10490, Gram -, read-out: Min. inhib. concentr. (MIC)
Procedure: as §4, §5

[18] = 25 clinical strains S. aureus incl. 16 methicillin resistant
[19] = 25 clinical strains E. faecalis
[20] = 25 clinical strains E. faecalis, 50% of strains, read-out: MIC50
[21] = 25 clinical strains S. epidermidis
[22] = 25 clinical strains S. epidermidis, 50% of strains, read-out: MIC50
[23] = 25 clinical strains E. faecium, 90% of strains, read-out: MIC90

Structure (SMILES) | MIC [1, 18] [µg/mL] | MIC50 [1, 18] [µg/mL] | MIC ([2]; 25 clinical strains E. faecium) [µg/mL] | MIC [3, 19] [µg/mL] | MIC [4, 21] [µg/mL] | MIC90 [4, 21] [µg/mL] | MIC [5] [µg/mL] | MIC [6] [µg/mL] | MIC [7] [µg/mL] | MIC [8] [µg/mL] | MIC [9] [µg/mL] | MIC [10] [µg/mL] | MIC [11] [µg/mL] | MIC [12] [µg/mL] | MIC [13] [µg/mL] | MIC [14] [µg/mL] | MIC (Enterobacter cloacae 963) [µg/mL] | MIC [15] [µg/mL] | MIC (Bacillus cereus IAM 1029) [µg/mL] | MIC [16] [µg/mL] | other results
COCC1CN(c2c(F)cc3c(=O)c(C(=O)O)c4scc5n4c3c2N(C)C5)CCO1 (stereo not drawn) [Compound (E), 9,1-(Methylimino)methano-7-fluoro-8-(2-methoxymethylmorpholino)-5-oxo-5H-thiazolo[3,2-a]quinoline-4-carboxylic acid] | 0.006 to 0.78 (≈ 0.0138 to 1.8 µM) | 0.013 (≈ 0.03 µM) | 0.1 to 12.5 (≈ 0.231 to 28.8 µM) | 0.1 to 6.25 (≈ 0.231 to 14.4 µM) | 0.006 to 0.39 (≈ 0.0138 to 0.9 µM) | 0.39 (≈ 0.9 µM) | 0.05 (≈ 0.115 µM) | 0.05 (≈ 0.115 µM) | 0.025 (≈ 0.0577 µM) | ≤ 0.006 | 0.013 (≈ 0.03 µM) | ≤ 0.006 | 0.2 (≈ 0.461 µM) | 0.78 (≈ 1.8 µM) | 0.05 (≈ 0.115 µM) | 0.013 (≈ 0.03 µM) | 0.78 (≈ 1.8 µM) | 0.05 (≈ 0.115 µM) | 0.025 (≈ 0.0577 µM) | 0.05 (≈ 0.115 µM) | MIC90 [1]: 0.78 µg/mL (≈ 1.8 µM); MIC50 [2]: 3.13 µg/mL (≈ 7.22 µM); MIC90 [2]: 6.25 µg/mL (≈ 14.4 µM); MIC90 [3]: 6.25 µg/mL (≈ 14.4 µM); MIC50 [3, 20]: 0.2 µg/mL (≈ 0.461 µM); MIC50 [4, 22]: 0.05 µg/mL (≈ 0.115 µM); MIC [17]: 1.56 µg/mL (≈ 3.6 µM)
CCOCC1CN(c2c(F)cc3c(=O)c(C(=O)O)c4scc5n4c3c2N(C)C5)CCO1 (stereo not drawn) [Compound (Q), 9,1-(Methylimino)methano-7-fluoro-8-(2-ethoxymethylmorpholino)-5-oxo-5H-thiazolo[3,2-a]quinoline-4-carboxylic acid] | 0.006 to 0.78 (≈ 0.0134 to 1.74 µM) | 0.013 (≈ 0.0291 µM) | 0.2 to 25 (≈ 0.447 to 55.9 µM) | 0.05 to 6.25 (≈ 0.112 to 14 µM) | 0.006 to 0.78 (≈ 0.0134 to 1.74 µM) | 0.39 (≈ 0.872 µM) | 0.1 (≈ 0.223 µM) | 0.2 (≈ 0.447 µM) | 0.1 (≈ 0.223 µM) | 0.05 (≈ 0.112 µM) | 0.05 (≈ 0.112 µM) | 0.05 (≈ 0.112 µM) | 0.78 (≈ 1.74 µM) | 1.56 (≈ 3.49 µM) | 0.2 (≈ 0.447 µM) | 0.1 (≈ 0.223 µM) | 1.56 (≈ 3.49 µM) | 0.39 (≈ 0.872 µM) | 0.1 (≈ 0.223 µM) | 0.39 (≈ 0.872 µM) | MIC90 [1]: 0.78 µg/mL (≈ 1.74 µM); MIC50 [2]: 3.13 µg/mL (≈ 6.99 µM); MIC90 [2, 23]: 12.5 µg/mL (≈ 27.9 µM); MIC50 [3]: 0.39 µg/mL (≈ 0.872 µM); MIC90 [3]: 6.25 µg/mL (≈ 14 µM); MIC50 [4]: 0.025 µg/mL (≈ 0.0559 µM); MIC [17]: 1.56 µg/mL (≈ 3.49 µM)
CC1CN(c2c(F)cc3c(=O)c(C(=O)O)c4scc5n4c3c2N(C)C5)CCO1 (stereo not drawn) [Compound (A), 9,1-(Methylimino)methano-7-fluoro-8-(2-methylmorpholino)-5-oxo-5H-thiazolo[3,2-a]quinoline-4-carboxylic acid] | 0.006 to 0.2 (≈ 0.0149 to 0.496 µM) | ≤ 0.006 | 0.05 to 6.25 (≈ 0.124 to 15.5 µM) | 0.025 to 3.13 (≈ 0.062 to 7.76 µM) | 0.006 to 0.39 (≈ 0.0149 to 0.967 µM) | 0.2 (≈ 0.496 µM) | 0.05 (≈ 0.124 µM) | 0.025 (≈ 0.062 µM) | 0.013 (≈ 0.0322 µM) | ≤ 0.006 | ≤ 0.006 | 0.013 (≈ 0.0322 µM) | 0.1 (≈ 0.248 µM) | 0.2 (≈ 0.496 µM) | 0.025 (≈ 0.062 µM) | 0.013 (≈ 0.0322 µM) | 0.2 (≈ 0.496 µM) | 0.013 (≈ 0.0322 µM) | 0.013 (≈ 0.0322 µM) | 0.025 (≈ 0.062 µM) | MIC90 ([1]; 25 clinical strains S. aureus incl. 16 methicillin resistant, 90% of strains, read-out: MIC90): 0.2 µg/mL (≈ 0.496 µM); MIC50 ([2]; 25 clinical strains E. faecium, 50% of strains, read-out: MIC50): 0.78 µg/mL (≈ 1.93 µM); MIC90 [2, 23]: 3.13 µg/mL (≈ 7.76 µM); MIC50 [3, 20]: 0.1 µg/mL (≈ 0.248 µM); MIC90 ([3]; 25 clinical strains E. faecalis, 90% of strains, read-out: MIC90): 3.13 µg/mL (≈ 7.76 µM); MIC50 [4, 22]: 0.013 µg/mL (≈ 0.0322 µM); MIC [17]: 0.39 µg/mL (≈ 0.967 µM)
